This note sets out measurements from patent US6337397B1, “Pyrimidine derivatives and their salts, useful for making benzoxazepine derivatives” (Suntory Limited, priority 1995, dated 2002).

The subject of one data set is male Wistar rats. The data set is described as follows: Anticonflict action, NaCl-Lick conflict method. Type of data set: in vivo. Conditions: Rattus norvegicus, po, 1 hour before the test; number of licks in 5 minutes of 2% saline; rats deprived of water for 48 hours; read-out: Minimum effective dosage. On the procedure: The anticonflict action of the compounds of the general formulae (I), (II), and (III) was evaluated in accordance with the NaCl-Lick conflict method of Tanga et al. (Pharmacol., Biochem., Behav., vol. 32, pp. 773-776, 1989). That is, six-week old male Wistar rats in groups of six to 10 were deprived of water for 48 hours and placed in an experimental apparatus placed in a soundproof box (apparatus made of acrylic resin, 20×20×30 cm, provided with a drinking outlet having a diameter of 1 cm at height of 8 cm from the floor, designed to be able to measure the number of drops per unit hour by a drinkometer), and the anticonflict action of the medicament was evaluated using as an indicator the number of drops (number of licks) in 5 minutes from the start of drinking of 2% saline. The tested medicament was orally administered in an amount of 0.2 ml/100 g body weight 1 hour before the start of the test.

Data set [1] deals with T1, serotonin 5-HT1A receptor (Rattus norvegicus, UniProt P19327).
T1 construct: the hippocampuses extracted from male Wistar rats were homogenized; from tissue; host or cells: rat hippocampus membrane homogenate
T1 sequence (P19327 1-422): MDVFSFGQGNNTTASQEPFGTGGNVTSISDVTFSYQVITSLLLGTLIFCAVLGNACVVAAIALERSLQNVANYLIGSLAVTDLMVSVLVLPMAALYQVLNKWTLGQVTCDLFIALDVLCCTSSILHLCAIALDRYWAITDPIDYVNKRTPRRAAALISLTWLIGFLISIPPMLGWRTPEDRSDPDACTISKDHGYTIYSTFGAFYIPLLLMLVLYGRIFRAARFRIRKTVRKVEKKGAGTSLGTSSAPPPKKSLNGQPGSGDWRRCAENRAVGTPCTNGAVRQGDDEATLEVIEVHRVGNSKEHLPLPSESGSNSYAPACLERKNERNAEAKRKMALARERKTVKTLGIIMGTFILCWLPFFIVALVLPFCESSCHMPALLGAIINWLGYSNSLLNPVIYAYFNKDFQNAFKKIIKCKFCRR
The data set is described as follows: Affinity with serotonin receptor, [3H]8-OH-DPAT binding. Conditions: for D2/5-HT1A: ratio of IC50 (D2) to IC50 (5-HT1A). The arrangement: species or system male Wistar rats. How it is done: The affinity of the compounds of the general formulas (I), (II), and (III) with a serotonin receptor was evaluated in accordance with the method of S. T. Peuroutka et al. (J. Neurochem., vol. 47, pp. 529-540, 1986). That is, the hippocampuses extracted from male Wistar rats were homogenized while adding 50 mM tris-phosphate buffer (pH 7.7). The homogenate was centrifuged at […] and 40000×g for 10 minutes. The same buffer was added to the obtained precipitate, then this was homogenized again and was similarly centrifuged to obtain the precipitate. This homogenization-centrifugation operation was repeated two times to obtain a final precipitate to which was then added 10 uM of N-methyl-N-2-propynylbenzylamine (Pargyline), 4 mM of calcium chloride, and 0.1% ascorbic acid contained in a 50 mM tris-phosphate buffer (ph 7.7). This was then homogenized to prepare the serotonin receptor.
For the binding experiment, 0.4 nM of [3H]2-di-n-propylamino-8-hydroxy-1,2,3,4-tetrahydronapthalene (8-DPAT; 8-hydroxy-N,N-dipropyl-2-aminotetetrilin) was used, various concentrations of test samples were added to a system of 0.25 mg/ml of protein or a total of 0.25 ml, and these were incubated at 25° C. for 30 minutes. A Whatman GF/C filter was used to filter each of the reaction solutions, then the filter was washed by 20 mM tris-phosphate buffer (pH 7.7). The serotonin receptor was trapped by the filter and the radio activity of the 8-OH-DAPT bonded to it was measured to find the degree of binding. The 50% inhibiting concentration of binding affinity (IC50) was calculated from the degrees of binding in the various sample concentrations. […] The IC50 values of typical compounds are shown together with the IC50 values with respect to the dopamine D2 receptor.

The next data set addresses T2, dopamine D2 receptor (Rattus norvegicus, UniProt P61169).
T2 construct: the corpus striatums excised from male Wistar rats were homogenized; from tissue; host or cells: rat corpus striatum membrane homogenate
The data set is described as follows: Affinity with dopamine D2 receptor, [3H]Raclopride binding. The arrangement: species or system male Wistar rats. Conditions: 1.0 nM [3H]Raclopride, rat corpus striatum preparation, 25° C., 60 minutes. How it is done: The affinity of the compounds of the general formulas (I), (II), and (III) with a dopamine D2 receptor was evaluated in accordance with the method of Kakohler et al. (Biochem. Pharmacol., vol. 34, pp. 2251-2259, 1985). That is, the corpus striatums excised from male Wistar rats were homogenized with the addition of 120 mM sodium chloride, 5 mM potassium chloride, 2 mM calcium chloride, 1 mM magnesium chloride, and 0.01% ascorbic acid contained in 50 mM tris-phosphate buffer (pH 7.7). The homogenate was centrifuged at […] and 35000×g for 10 minutes. The same buffer was added to the resultant precipitate,then this was homogenized again and was similarly centrifuged to obtain the precipitate. The same buffer was added to this precipitate which was then again homogenized to prepare the dopamine D2 receptor.
For the binding experiment, use was made of 1.0 nM of [3H]3,5-dichloro-N-[(1-ethyl-2-pyrrolidinyl)methyl]-6-hydroxy-o-anisamide (Raclopride), various concentrations of test samples were added to a system of 0.34 mg/ml of protein or a total of 0.25 ml, incubation was performed at 25° C. for 60 minutes, then the radioactivity was measured in the same way as in the Evaluation Example 1 to find the degree of binding.
The 50% inhibiting concentration of binding affinity (IC50) was calculated from the degrees of binding at various concentrations of the added samples. […] The IC50 values of typical compounds are shown together with the IC50 values for the serotonin receptor.

The next data set relates to Wistar male rats. The data set is described as follows: Ischemic brain tissue damage, transient right middle cerebral artery occlusion (MCAO) model. The class given is in vivo. Conditions: Rattus norvegicus, sc, 240 h; s.c., immediately after occlusion; 60 minutes occlusion; brain tissue damage 10 days after restart of blood flow (number of benzodiazepine bindings); read-out: Minimum effective dosage. How it is done: The evaluation of the efficacy on ischemic brain damage of the compounds of the general formulae (I), (II), and (III) was performed using the transient right middle cerebral artery occlusion (MCAO) model of Koizumi et al. (Jap. J. Stroke, vol. 8, pp. 1 to 8, 1986). That is, 10 to 11 week old Wistar male rats were used and the right middle cerebral artery was temporarily obstructed for 60 minutes. 10 days after the restart of the blood flow, the brains were excised and the degree of brain tissue damage of the cerebral cortex and corpus striatum of the obstructed side were evaluated by the damage marker of the number of benzodiazepine bindings. The tested drugs were dissolved in physiological saline and administered subcutaneously at the backs of the rats immediately after the right middle cerebral artery occlusion. As a control, physiological saline of […] body weight was similarly administered.

The nature of data set [2]: Acute toxicity after oral administration. Conditions: rat, in vivo; 24 hours after oral administration, six-week old male rats. From the text: This value is over 50 times or more of the expected clinical dosage and therefore, it is judged that the safety of the compounds according to the present invention is high.
The mark [3] stands for this setting: 0.4 nM [3H]8-OH-DPAT, rat hippocampus preparation, 25° C., 30 minutes, read-out: IC50 (5-HT1A).

Like-named read-outs stand apart in the source and are kept apart here.

T2 sequence (P61169 whole entry): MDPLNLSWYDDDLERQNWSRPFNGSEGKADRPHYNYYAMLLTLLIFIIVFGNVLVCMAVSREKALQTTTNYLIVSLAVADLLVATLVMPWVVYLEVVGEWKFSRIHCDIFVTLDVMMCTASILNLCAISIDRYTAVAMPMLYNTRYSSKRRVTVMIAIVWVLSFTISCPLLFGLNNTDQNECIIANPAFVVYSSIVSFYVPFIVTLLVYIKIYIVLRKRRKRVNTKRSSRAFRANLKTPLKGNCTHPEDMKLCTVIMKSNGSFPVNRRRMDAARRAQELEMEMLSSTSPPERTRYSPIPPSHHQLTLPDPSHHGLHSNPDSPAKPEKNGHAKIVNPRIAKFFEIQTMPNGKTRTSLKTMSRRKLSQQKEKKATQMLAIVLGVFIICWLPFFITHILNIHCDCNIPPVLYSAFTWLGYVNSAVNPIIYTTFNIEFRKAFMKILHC

On to `O=C1c2ccccc2OC=CN1CCCCN1CCN(c2ccccn2)CC1` [Example 32, 4,5-dihydro-4-(4-(4-(2-pyridyl)piperazin-1-yl)butyl)-1,4-benzoxazepin-5-one], for which the melting point (usually the temperature of the solid-liquid transition) lay within 150 to 151 °C. Further, the minimal effective dose with male Wistar rats was 30 mg/kg.
Taken in the same sequence, the figures for `COc1ccc2c(c1)OC=CN(CCCCN1CCN(c3ncccn3)CC1)C2=O` [Example 33, 4,5-dihydro-8-methoxy-4-(4-(4-(2-pyrimidinyl)piperazin-1-yl)butyl)-1,4-benzoxazepin-5-one] were 156 to 158 °C and 10 mg/kg.
`CC1=COc2ccccc2C(=O)N1CCCCN1CCN(c2ncccn2)CC1` [Example 34, 4,5-dihydro-3-methyl-4-(4-(4-(2-pyrimidinyl)piperazin-1-yl)butyl)-1,4-benzoxazepin-5-one]: the melting point lay within 141 to 142 °C. The minimal effective dose in the data set on male Wistar rats was 30 mg/kg.
As to `CC1=COc2ccccc2C(=O)N1CCCCN1CCN(c2cccc(Cl)n2)CC1` [Example 35, 4-(4-(4-(2-chloropyridin-6-yl)piperazin-1-yl)butyl)-4,5-dihydro-3-methyl-1,4-benzoxazepin-5-one], the melting point was 166 to 168 °C. For the same compound, the IC50 (commonly the concentration that inhibits the measured activity by half) in data set [1] (setting [3]) worked out at 1.5 nM. In data set [1], the D2/5-HT1A was found to be 196. At dopamine D2 receptor, this compound came in with an IC50 of 294 nM.
`CC1=COc2cc(C)ccc2C(=O)N1CCCCN1CCN(c2cccc(C)c2)CC1` [Example 37] registered a melting point of 113 to 115 °C.
Still for that read-out and setting: the value for `COc1ccccc1N1CCN(CCCCN2C(=O)c3ccc(C)cc3OC=C2C)CC1` [Example 38, 4,5-dihydro-3,8-dimethyl-4-(4-(4-(2-methoxyphenyl)piperazin-1-yl)butyl)-1,4-benzoxazepin-5-one] was 88 to 90 °C; that for `CC1=COc2ccc(C)cc2C(=O)N1CCCCN1CCN(c2ncc(F)c(N)n2)CC1` [Example 40, 4-(4-(4-(4-amino-5-fluoropyrimidin-2-yl)piperazin-1-yl)butyl)-4,5-dihydro-3,7-dimethyl-1,4-benzoxazepin-5-one] was 243 to 245 °C.
As for `O=C1c2ccccc2OC=C(Cl)N1CCCCN1CCN(c2ccccn2)CC1` [Example 46, 3-chloro-4,5-dihydro-4-(4-(4-(2-pyridyl)piperazin-1-yl)butyl)-1,4-benzoxazepin-5-one], the IC50 came to 0.77 nM in data set [1] (setting [3]) and 51 nM on dopamine D2 receptor. Moreover, the D2/5-HT1A in data set [1] stood at 67. The minimal effective dose in the data set on male Wistar rats was 10 mg/kg; in the data set on Wistar male rats it was 0.3 mg/kg.
For `O=C1c2ccc(Cl)cc2OC=C(Cl)N1CCCCN1CCN(c2ccccn2)CC1` [Example 48, 3,8-dichloro-4,5-dihydro-4-(4-(4-(2-pyridyl)piperazin-1-yl)butyl)-1,4-benzoxazepin-5-one], in that order: 1.2 nM, 233 nM, 194, 30 mg/kg and 1 mg/kg.
Turning to `O=C1c2ccccc2OC=C(Cl)N1CCCCN1CC=C(c2ncccn2)CC1` [Example 56, 3-chloro-4,5-dihydro-4-(4-(4-(2-pyrimidinyl)-1,2,5,6-tetrahydropyridin-1-yl)butyl)-1,4-benzoxazepin-5-one], the 50% lethal dose (LD50) (as a rule, the dose expected to kill half of the subjects tested) at 24 h in data set [2] is ≥ 100 mg/kg. The IC50 came out at 1.38 nM in data set [1] and 494 nM at dopamine D2 receptor. For the same compound, in data set [1], the D2/5-HT1A stood at 358. Further, the minimal effective dose in the data set with Wistar male rats is 1 mg/kg.
On to `O=C1c2ccccc2OC=C(Cl)N1CCCCN1CC=C(c2ccccn2)CC1` [Example 82], for which the half-inhibitory concentration (IC50) turned out to be 0.47 nM in data set [1] (setting [3]) and 128 nM on dopamine D2 receptor. Moreover, the D2/5-HT1A in data set [1] came out at 84. Besides, the minimal effective dose in the data set on male Wistar rats worked out at 30 mg/kg; with Wistar male rats it was 0.3 mg/kg.
